Target: T1, ZENC (Neurospora crassa, UniProt Q1K8M1)
T1 construct: gene NCU05345; codon-optimised full gene (888 bp; 295 residues in abstract, 296 in results) fused to alpha-factor signal peptide in pPIC9K; secreted from Pichia pastoris GS115, HiTrap Q purified; about 29 kDa by SDS-PAGE; proposed catalytic triad Ser117, Asp141, His274
Experiment: HPLC with fluorescence detection of remaining substrate; nonlinear Hill fit with n = […]
Format: biochemical
Conditions: 50 mM Tris-HCl pH 8.0, 45 °C, 3 min; substrate range printed as 2 to 220 mM

T1 sequence (Q1K8M1 entry or part of it): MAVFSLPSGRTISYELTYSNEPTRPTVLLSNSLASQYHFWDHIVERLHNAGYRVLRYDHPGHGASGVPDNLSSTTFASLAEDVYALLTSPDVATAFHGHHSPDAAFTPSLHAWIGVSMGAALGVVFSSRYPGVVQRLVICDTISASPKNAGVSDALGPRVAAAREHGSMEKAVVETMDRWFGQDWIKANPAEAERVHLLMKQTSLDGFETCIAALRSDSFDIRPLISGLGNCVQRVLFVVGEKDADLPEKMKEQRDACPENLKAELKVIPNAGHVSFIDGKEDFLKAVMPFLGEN

Compound: C[C@H]1CCCC(=O)CCC/C=C/c2cc(O)cc(O)c2C(=O)O1 [zearalenone]
- Km: 38.6 ± 5.87 µM

— article PMC6301899, “Characterization, expression and application of a zearalenone degrading enzyme from Neurospora crassa” (AMB Express, 2018)
